From ChEMBL document CHEMBL1121583, “Synthesis and structure-activity studies of a series of 7 alpha-halogeno corticosteroids” (1980)

System: Mus musculus
Assay: Relative topical anti inflammatory activity was measured in mice by comparing with cumulative potency of betamethasone valerate by using croton oil ear assay
Assay type: functional

CCC(=O)OCC(=O)[C@@]1(OC(=O)CC)[C@@H](C)CC2C3C(C(O)C[C@@]21C)[C@@]1(C)C=CC(=O)C=C1C[C@H]3Br (some centres not stated)
Potency: 186

CC(=O)OCC(=O)[C@@]1(O)[C@@H](C)CC2C3C(C(O)C[C@@]21C)[C@@]1(C)C=CC(=O)C=C1C[C@H]3Cl (some centres not stated)
Potency: 81

CCC(=O)OCC(=O)[C@@]1(OC(=O)CC)[C@H](C)CC2C3C(C(O)C[C@@]21C)[C@@]1(C)C=CC(=O)C=C1C[C@H]3F (some centres not stated)
Potency: 78

CC(=O)OCC(=O)[C@@]1(O)[C@H](C)CC2C3C(C(O)C[C@@]21C)[C@@]1(C)C=CC(=O)C=C1C[C@H]3Br (some centres not stated)
Potency: 20

CCC(=O)OCC(=O)[C@@]1(OC(=O)CC)[C@@H](C)CC2C3C(C(O)C[C@@]21C)[C@@]1(C)C=CC(=O)C=C1C[C@H]3I (some centres not stated)
Potency: 103

CC(=O)OCC(=O)[C@@]1(O)[C@@H](C)CC2C3C=CC4=CC(=O)C=C[C@]4(C)C3C(O)C[C@@]21C (some centres not stated)
Potency: 29

CCC(=O)OCC(=O)[C@@]1(OC(=O)CC)[C@H](C)CC2C3CCC4=CC(=O)C=C[C@]4(C)C3C(O)C[C@@]21C (some centres not stated)
Potency: 74

CCC(=O)OCC(=O)[C@@]1(OC(=O)CC)[C@H](C)CC2C3C(C(O)C[C@@]21C)[C@@]1(C)C=CC(=O)C=C1C[C@H]3Br (some centres not stated)
Potency: 120

CCC(=O)OCC(=O)[C@@]1(OC(=O)CC)[C@@H](C)CC2C3C(C(O)C[C@@]21C)[C@@]1(C)C=CC(=O)C=C1C[C@H]3F (some centres not stated)
Potency: 69

CCC(=O)OCC(=O)[C@@]1(OC(=O)CC)[C@H](C)CC2C3C=CC4=CC(=O)C=C[C@]4(C)C3C(O)C[C@@]21C (some centres not stated)
Potency: 27

CCC(=O)OCC(=O)[C@@]1(OC(=O)CC)[C@@H](C)CC2C3C=CC4=CC(=O)C=C[C@]4(C)C3C(O)C[C@@]21C (some centres not stated)
Potency: 57

CCC(=O)OCC(=O)[C@@]1(OC(=O)CC)[C@H](C)CC2C3C(C(O)C[C@@]21C)[C@@]1(C)C=CC(=O)C=C1C[C@H]3I (some centres not stated)
Potency: 36

CC(=O)OCC(=O)[C@@]1(O)[C@H](C)CC2C3C=CC4=CC(=O)C=C[C@]4(C)C3C(O)C[C@@]21C (some centres not stated)
Potency: 4

CC(=O)OCC(=O)[C@@]1(O)[C@@H](C)CC2C3C(C(O)C[C@@]21C)[C@@]1(C)C=CC(=O)C=C1C[C@H]3Br (some centres not stated)
Potency: 94

CC(=O)OCC(=O)[C@@]1(O)[C@H](C)CC2C3CCC4=CC(=O)C=C[C@]4(C)C3C(O)C[C@@]21C (some centres not stated)
Potency: 10

CCC(=O)OCC(=O)[C@@]1(OC(=O)CC)[C@@H](C)CC2C3CCC4=CC(=O)C=C[C@]4(C)C3C(O)C[C@@]21C (some centres not stated)
Potency: 76

CC(=O)OCC(=O)[C@@]1(O)[C@@H](C)CC2C3C(C(O)C[C@@]21C)[C@@]1(C)C=CC(=O)C=C1C[C@H]3I (some centres not stated)
Potency: 54

CC(=O)OCC(=O)[C@@]1(O)[C@@H](C)CC2C3C(C(O)C[C@@]21C)[C@@]1(C)C=CC(=O)C=C1C[C@H]3F (some centres not stated)
Potency: 16

CC(=O)OCC(=O)[C@@]1(O)[C@@H](C)CC2C3CCC4=CC(=O)C=C[C@]4(C)C3C(O)C[C@@]21C (some centres not stated)
Potency: 26

CC(=O)OCC(=O)[C@@]1(O)[C@H](C)CC2C3C(C(O)C[C@@]21C)[C@@]1(C)C=CC(=O)C=C1C[C@H]3Cl (some centres not stated)
Potency: 32

CCC(=O)OCC(=O)[C@@]1(OC(=O)CC)[C@@H](C)C[C@H]2[C@@H]3CCC4=CC(=O)C=C[C@]4(C)[C@@]3(F)[C@@H](O)C[C@@]21C [BETAMETHASONE DIPROPIONATE]
Potency: 165

CCCCC(=O)O[C@]1(C(=O)CO)[C@@H](C)C[C@H]2[C@@H]3CCC4=CC(=O)C=C[C@]4(C)[C@@]3(F)[C@@H](O)C[C@@]21C [BETAMETHASONE VALERATE]
Potency: 100
